Measurements from ChEMBL document CHEMBL1201862, “PubChem BioAssay data set” (2004).
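Test compounds were applied to cells in 96-well plates for 48 hours at 5 doses. Here, GI50 denotes the concentration required for 50% inhibition of growth.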 Activity calls are given as the source filed them. No stated cut-off is given here; in the data, active = GI50 up to about 1.1 µM and inactive = higher.

Experiments:
Experiment in all cases: DTP human tumour cell line panel, 48 h
[1] = system: SF-539
[2] = system: NCI-H522
[3] = system: A498
[4] = system: OVCAR-3
[5] = system: SK-MEL-2
[6] = system: SR
[7] = system: SW-620
[8] = system: OVCAR-5
[9] = system: HCT-116
[10] = system: Malme-3M
[11] = system: IGROV-1
[12] = system: KM12
[13] = system: UO-31
[14] = system: OVCAR-4
[15] = system: OVCAR-8
[16] = system: SK-MEL-5
[17] = system: K562
[18] = system: HCT-15
[19] = system: HL-60

Structure (SMILES)	GI50 [1]	GI50 [2]	GI50 [3]	GI50 [4]	GI50 [5]	GI50 [6]	GI50 [7]	GI50 [8]	GI50 [9]	GI50 [10]	GI50 [11]	GI50 [12]	GI50 [13]	GI50 [14]	GI50 [15]	GI50 [16]	GI50 [17]	GI50 [18] [µM]	GI50 [19]
CC(C)C[C@H](NC(=O)[C@@H](Cc1cccc2ccccc12)NC(=O)N1CCOCC1)B(O)O	2.04 µM (inactive)	1.92 µM (inactive)	4.05 µM (inactive)	2.61 µM (inactive)	3.33 µM (inactive)	3.13 µM (inactive)	3.14 µM (inactive)	3.19 µM (inactive)	2.24 µM (inactive)	1.58 µM (inactive)	5.06 µM (inactive)	5.13 µM (inactive)	19.5 µM (inactive)	4.72 µM (inactive)	16.7 µM (inactive)	3.13 µM (inactive)	3.55 µM (inactive)	21.9	2.77 µM (inactive)
O=C(O)C(Oc1nc(S)nc(S)n1)(c1ccc(Cl)cc1)c1ccc(Cl)cc1	> 100 µM (inactive)	> 100 µM (inactive)	> 100 µM (inactive)	> 100 µM (inactive)	> 100 µM (inactive)	> 100 µM (inactive)	> 100 µM (inactive)	> 100 µM (inactive)	> 100 µM (inactive)	> 100 µM (inactive)	> 100 µM (inactive)	> 100 µM (inactive)	> 100 µM (inactive)	> 100 µM (inactive)	> 100 µM (inactive)	> 100 µM (inactive)	> 100 µM (inactive)	> 100	> 100 µM (inactive)
CCCc1cn2c(/C=N/NC(=N)N)c(-c3ccc(Cl)c([N+](=O)[O-])c3)nc2s1	1.88 µM (inactive)	1.98 µM (inactive)	1.66 µM (inactive)	1.55 µM (inactive)	1.71 µM (inactive)	1.25 µM (inactive)	1.07 µM (active)	1.55 µM (inactive)	1.22 µM (inactive)	1.68 µM (inactive)	1.89 µM (inactive)	1.33 µM (inactive)	1.76 µM (inactive)	1.06 µM (active)	1.82 µM (inactive)	1.67 µM (inactive)	1.37 µM (inactive)	1.7	1.2 µM (inactive)
COC(=O)CCc1cc(OC)c2oc(-c3ccc(OC)c(OC)c3)c(CO)c2c1	> 100 µM (inactive)	> 100 µM (inactive)	> 100 µM (inactive)	> 100 µM (inactive)	65 µM (inactive)	56 µM (inactive)	> 100 µM (inactive)	> 100 µM (inactive)	> 100 µM (inactive)	> 100 µM (inactive)	> 100 µM (inactive)	> 100 µM (inactive)	> 100 µM (inactive)	> 100 µM (inactive)	> 100 µM (inactive)	> 100 µM (inactive)	> 100 µM (inactive)	> 100	> 100 µM (inactive)
C=C1CC(CN2CCC(=O)NC2=O)(c2ccccc2)OC1=O (stereo not drawn)	13.7 µM (inactive)	0.859 µM (active)	19.2 µM (inactive)	13 µM (inactive)	12.6 µM (inactive)	2.09 µM (inactive)	1.94 µM (inactive)	15.1 µM (inactive)	3.35 µM (inactive)	3.53 µM (inactive)	7.87 µM (inactive)	20.9 µM (inactive)	18 µM (inactive)	1.81 µM (inactive)	16.4 µM (inactive)	12.4 µM (inactive)	2.39 µM (inactive)	4.98	1.62 µM (inactive)
O=S1(=O)NC2CCC3NS(=O)(=O)NC4CCC(N1)N4S(=O)(=O)N23 (stereo not drawn)	> 100 µM (inactive)	> 100 µM (inactive)	> 100 µM (inactive)	> 100 µM (inactive)	> 100 µM (inactive)	> 100 µM (inactive)	> 100 µM (inactive)	> 100 µM (inactive)	> 100 µM (inactive)	> 100 µM (inactive)	> 100 µM (inactive)	> 100 µM (inactive)	> 100 µM (inactive)	> 100 µM (inactive)	> 100 µM (inactive)	> 100 µM (inactive)	> 100 µM (inactive)	> 100	> 100 µM (inactive)
Cc1cc(S(=O)(=O)N=C2NCC(C)(C)CN2)c(S)cc1Cl	40.6 µM (inactive)	27.9 µM (inactive)	> 100 µM (inactive)	35.7 µM (inactive)	21.3 µM (inactive)	37.9 µM (inactive)	17.9 µM (inactive)	23.1 µM (inactive)	27.5 µM (inactive)	44.7 µM (inactive)	38.9 µM (inactive)	30.8 µM (inactive)	44.1 µM (inactive)	17.6 µM (inactive)	27 µM (inactive)	17.2 µM (inactive)	25.5 µM (inactive)	42.7	25.8 µM (inactive)
NCCOc1cccc(C2(N3CCCCC3)CCCCC2)c1	17.5 µM (inactive)	19.1 µM (inactive)	30 µM (inactive)	34.2 µM (inactive)	21.8 µM (inactive)	16.1 µM (inactive)	31.5 µM (inactive)	41.4 µM (inactive)	16.2 µM (inactive)	20.1 µM (inactive)		45.3 µM (inactive)	13.7 µM (inactive)	35.9 µM (inactive)	33.4 µM (inactive)	16.5 µM (inactive)	16 µM (inactive)	38.9	25 µM (inactive)
CC1(C)OC1CC/C(=C/CBr)CBr (stereo not drawn)	18.1 µM (inactive)	10.3 µM (inactive)	21.4 µM (inactive)	18.7 µM (inactive)	14.8 µM (inactive)	13.8 µM (inactive)	15 µM (inactive)	17.5 µM (inactive)	18.1 µM (inactive)	22.3 µM (inactive)	13.8 µM (inactive)	16 µM (inactive)	14.4 µM (inactive)	17 µM (inactive)		14.1 µM (inactive)	15.8 µM (inactive)		4.92 µM (inactive)
CN1CCC(O)(OC(=O)C(c2ccccc2)C2(O)CCCC2)CC1 (stereo not drawn)	> 100 µM (inactive)	> 100 µM (inactive)	> 100 µM (inactive)	> 100 µM (inactive)	> 100 µM (inactive)	> 100 µM (inactive)	> 100 µM (inactive)	> 100 µM (inactive)	> 100 µM (inactive)	> 100 µM (inactive)	> 100 µM (inactive)	> 100 µM (inactive)		> 100 µM (inactive)	> 100 µM (inactive)	> 100 µM (inactive)	> 100 µM (inactive)	> 100	> 100 µM (inactive)
Nc1c(C(=O)O)nnc2cc(Cl)ccc12	> 100 µM (inactive)	> 100 µM (inactive)	85.3 µM (inactive)	> 100 µM (inactive)	> 100 µM (inactive)	> 100 µM (inactive)	> 100 µM (inactive)	> 100 µM (inactive)	> 100 µM (inactive)	> 100 µM (inactive)	> 100 µM (inactive)	> 100 µM (inactive)	> 100 µM (inactive)	> 100 µM (inactive)	> 100 µM (inactive)	> 100 µM (inactive)	> 100 µM (inactive)	> 100	> 100 µM (inactive)
NCCc1ccc(S(=O)(=O)O)cc1[N+](=O)[O-]	> 100 µM (inactive)	> 100 µM (inactive)	> 100 µM (inactive)	> 100 µM (inactive)	> 100 µM (inactive)	4.71 µM (inactive)	> 100 µM (inactive)	> 100 µM (inactive)	> 100 µM (inactive)	> 100 µM (inactive)	> 100 µM (inactive)	> 100 µM (inactive)	> 100 µM (inactive)	> 100 µM (inactive)	> 100 µM (inactive)	> 100 µM (inactive)		> 100	> 100 µM (inactive)
COc1cc2cc[n+](C)c(Cc3ccc(Oc4cc(Cc5c6cc(OC)c(OC)cc6cc[n+]5C)ccc4OC)cc3)c2cc1OC	> 100 µM (inactive)	> 100 µM (inactive)	> 100 µM (inactive)	> 100 µM (inactive)	> 100 µM (inactive)	> 100 µM (inactive)	> 100 µM (inactive)	> 100 µM (inactive)	> 100 µM (inactive)	> 100 µM (inactive)	> 100 µM (inactive)	> 100 µM (inactive)	> 100 µM (inactive)	> 100 µM (inactive)	> 100 µM (inactive)	> 100 µM (inactive)	> 100 µM (inactive)	> 100	45.2 µM (inactive)
O=[N+]([O-])c1ccc2c(c1)Nc1c3ccccc3nc3cccc-2c13	12.1 µM (inactive)	3.44 µM (inactive)	34.5 µM (inactive)	0.689 µM (active)	15 µM (inactive)	0.733 µM (active)	2.13 µM (inactive)	6.93 µM (inactive)	5.38 µM (inactive)	2 µM (inactive)	1.47 µM (inactive)	3.57 µM (inactive)	5.65 µM (inactive)	1.43 µM (inactive)	1.17 µM (inactive)	0.883 µM (active)	2.1 µM (inactive)	3.56	1.32 µM (inactive)
Nc1nc2[nH]cc(CCc3ccc(C(=O)N[C@@H](CCC(=O)O)C(=O)O)cc3)c2c(=O)[nH]1 [PEMETREXED]	< 0.01 µM (active)	> 100 µM (inactive)	0.27 µM (active)	> 100 µM (inactive)	> 100 µM (inactive)	> 100 µM (inactive)	> 100 µM (inactive)	> 100 µM (inactive)	0.0597 µM (active)	> 100 µM (inactive)	> 100 µM (inactive)	> 100 µM (inactive)		> 100 µM (inactive)		> 100 µM (inactive)	< 0.0258 µM (active)	> 100	0.0652 µM (active)
